Assay results reported in US11723890B2, “Methods of treatment using an mTORC1 modulator” (Navitor Pharmaceuticals, Inc., priority 2019, dated 2023).
Like-named read-outs stand apart in the source and are kept apart here.

How the values were obtained:
[1] = Example 3: plasma pharmacokinetics of two sequential doses; assay type: in vivo, human; conditions: for Tmax / AUC / AUC(0-t) / Cmax / half-life: male, human, 2400 mg
Method: Up to approximately 24 healthy male volunteers were randomly assigned (1:1) to double-blind treatment with either compound A 2400 mg or placebo. Each subject received one dose of either 2400 mg compound A or placebo on Day 1 and a second dose of the same treatment on Day 3.
The initial dose of double-blind treatment was administered between 7:00 AM and 10:00 AM on Day 1. The second (Day 3) dose was given 48 hours ±30 minutes following the first (Day 1) dose. Predose assessments were performed up to 120 minutes prior to dosing on Day 1 and Day 3, except for the predose dECG, which was performed within 30 minutes prior to dosing on both Day 1 and Day 3, the predose qEEG and ERP, which was performed within 60 minutes prior to dosing on Day 1 and Day 3, and the predose PK blood draw, which was performed within 15 minutes prior to dosing on Day 3.
Pharmacodynamics were assessed via qEEG and event-related potential (ERP). Frequent PK sampling was included in the study to evaluate the PK of two doses of compound A given approximately 48 hours apart. A PK/PD model was developed that measures qEEG and ERP changes as a function of plasma concentration of compound A as well as determines whether there are any PK/PD differences between Dose 1 and Dose 2 effects.
Subjects were required to refrain from eating or drinking from 2 hours prior to dose administration until two hours after dose administration.

healthy male volunteers = assay: Example 3: safety and tolerability of two sequential doses in healthy male volunteers; assay type: in vivo, human; conditions: healthy male subjects; two doses 2400 mg 48 hours apart
Method: Safety Endpoints: The safety endpoint was to assess the safety and tolerability of sequential doses of compound A vs. placebo in healthy male volunteers, as assessed by clinical laboratory parameters, physical, neurologic, and psychiatric examinations, vital signs, ECGs, EEGs, and adverse events.
This study was designed to evaluate the safety, tolerability, pharmacodynamics, and pharmacokinetics of two sequential doses of 2400 mg compound A (separated by 2 days), compared with placebo, in 24 healthy adult males (12 receiving compound A, 12 receiving placebo).

[2] = system: BDNF and BDNF receptor (NTRK2); assay: Example 2: CSF BDNF and BDNF receptor (NTRK2) fragment levels; assay type: in vivo, human; conditions: healthy males; single oral 2400 mg; FIGS. 9 and 10
Source text: Exploratory Objective(s): The exploratory objectives of this study were as follows using CSF and plasma samples collected over the same time frame as the PK samples: • conducted unbiased metabolomic analysis using validated methods as described: https://www.metabolon.com/what-we-do/our-technology. • conducted unbiased proteomic analysis using validated methods as described: https://www.biognosys.com/technology. Study Endpoints:
Pharmacokinetic, Metabolomic, and Proteomic Variables: Blood and CSF samples for the PK, metabolomics, and proteomic analysis of compound A were collected at various time points and were processed and analyzed by a validated method for determining concentrations of compound A.

[3] = system: rodent models of stress-induced depressive behavior; assay: Preclinical rodent models of stress-induced depressive behavior; assay type: in vivo; conditions: head-to-head with ketamine
Source text: Compound A [(S)-2-amino-5,5-difluoro-4,4-dimethylpentanoic acid] is a novel, orally bioavailable, specific, small molecule that activates mTORC1 pathway signaling in the brain, including those centers responsible for mood.

[4] = healthy males, 2400 mg oral, Day 1, N 11
[5] = healthy males, 2400 mg oral, second dose, Day 3, N 11

CC(C)(C[C@H](N)C(=O)O)C(F)F [Compound A, (S)-2-amino-5,5-difluoro-4,4-dimethylpentanoic acid]
accumulation between Day 1 and Day 3 ([1]; 2400 mg oral 48 hours apart): negligible accumulation
difference in geometric mean exposure (Cmax, AUC(0-24), AUC(0-48)) between Day 1 and Day 3 ([1]; 2400 mg oral on Days 1 and 3): ≤ 5%
time of peak concentration for the mean profile ([1]; 2400 mg oral, day 1, post-dose): 1 h
time of highest concentration for the mean profile ([1]; 2400 mg oral, day 3, post-dose): 0.5 h
mean plasma concentration versus time profiles on days 1 and 3 ([1]; FIG. 13): nearly superimposable
AUC(0-24), Max [1, 4]: 416,000 h*ng/mL
AUC(0-24), Min [1, 4]: 298,000 h*ng/mL
AUC(0-48), Max [1, 4]: 525,000 h*ng/mL
AUC(0-48), Min [1, 4]: 357,000 h*ng/mL
AUClast, Max [1, 4]: 481,000 h*ng/mL
AUClast, Min [1, 4]: 298,000 h*ng/mL
Cmax, Max [1, 4]: 57,700 ng/mL
Cmax, Min [1, 4]: 23,300 ng/mL
T1/2, Max [1, 4]: 15.2 h
T1/2, Min [1, 4]: 9.20 h
AUC(0-24), Max [1, 5]: 449,000 h*ng/mL
AUC(0-24), Min [1, 5]: 294,000 h*ng/mL
AUC(0-48), Max [1, 5]: 584,000 h*ng/mL
AUC(0-48), Min [1, 5]: 353,000 h*ng/mL
AUClast, Max [1, 5]: 632,000 h*ng/mL
AUClast, Min [1, 5]: 369,000 h*ng/mL
Cmax, Max [1, 5]: 52,300 ng/mL
Cmax, Min [1, 5]: 35,700 ng/mL
T1/2, Max [1, 5]: 21.1 h
T1/2, Min [1, 5]: 10.9 h
Tmax ([1]; oral, all subjects, both dosing days (Days 1 and 3), read-out: individual Tmax values): 0.5 to 1 h
AUC ([1]; po, healthy males, 2400 mg oral, Day 1, N 11, read-out: AUC(0-24), Geometric mean): 355 µg·h/mL
AUC ([1]; po, healthy males, 2400 mg oral, Day 1, N 11, read-out: AUC(0-24), Mean): 358 µg·h/mL
AUC ([1]; po, healthy males, 2400 mg oral, Day 1, N 11, read-out: AUC(0-24), Median): 366 µg·h/mL
AUC ([1]; po, healthy males, 2400 mg oral, Day 1, N 11, read-out: AUC(0-48), Geometric mean): 438 µg·h/mL
AUC ([1]; po, healthy males, 2400 mg oral, Day 1, N 11, read-out: AUC(0-48), Mean): 442 µg·h/mL
AUC ([1]; po, healthy males, 2400 mg oral, Day 1, N 11, read-out: AUC(0-48), Median): 453 µg·h/mL
AUC(0-t) ([1]; po, healthy males, 2400 mg oral, Day 1, N 11, read-out: AUClast, Geometric mean): 405 µg·h/mL
AUC(0-t) ([1]; po, healthy males, 2400 mg oral, Day 1, N 11, read-out: AUClast, Mean): 409 µg·h/mL
AUC(0-t) ([1]; po, healthy males, 2400 mg oral, Day 1, N 11, read-out: AUClast, Median): 422 µg·h/mL
Cmax ([1]; po, healthy males, 2400 mg oral, Day 1, N 11, read-out: Cmax, Geometric mean): 43900 ng/mL
Cmax ([1]; po, healthy males, 2400 mg oral, Day 1, N 11, read-out: Cmax, Mean): 45100 ng/mL
Cmax ([1]; po, healthy males, 2400 mg oral, Day 1, N 11, read-out: Cmax, Median): 47000 ng/mL
half-life ([1]; po, healthy males, 2400 mg oral, Day 1, N 11, read-out: T1/2, Geometric mean (converted)): 12.1 h
half-life ([1]; po, healthy males, 2400 mg oral, Day 1, N 11, read-out: T1/2, Mean (converted)): 12.2 h
half-life ([1]; po, healthy males, 2400 mg oral, Day 1, N 11, read-out: T1/2, Median (converted)): 12 h
Tmax ([1]; po, healthy males, 2400 mg oral, Day 1, N 11, read-out: Tmax, Median): 1 h
AUC ([1]; po, healthy males, 2400 mg oral, second dose, Day 3, N 11, read-out: AUC(0-24), Geometric mean): 350 µg·h/mL
AUC ([1]; po, healthy males, 2400 mg oral, second dose, Day 3, N 11, read-out: AUC(0-24), Mean): 353 µg·h/mL
AUC ([1]; po, healthy males, 2400 mg oral, second dose, Day 3, N 11, read-out: AUC(0-24), Median): 340 µg·h/mL
AUC ([1]; po, healthy males, 2400 mg oral, second dose, Day 3, N 11, read-out: AUC(0-48), Geometric mean): 430 µg·h/mL
AUC ([1]; po, healthy males, 2400 mg oral, second dose, Day 3, N 11, read-out: AUC(0-48), Mean): 436 µg·h/mL
AUC ([1]; po, healthy males, 2400 mg oral, second dose, Day 3, N 11, read-out: AUC(0-48), Median): 428 µg·h/mL
AUC(0-t) ([1]; po, healthy males, 2400 mg oral, second dose, Day 3, N 11, read-out: AUClast, Geometric mean): 455 µg·h/mL
AUC(0-t) ([1]; po, healthy males, 2400 mg oral, second dose, Day 3, N 11, read-out: AUClast, Mean): 462 µg·h/mL
AUC(0-t) ([1]; po, healthy males, 2400 mg oral, second dose, Day 3, N 11, read-out: AUClast, Median): 460 µg·h/mL
Cmax ([1]; po, healthy males, 2400 mg oral, second dose, Day 3, N 11, read-out: Cmax, Geometric mean): 45300 ng/mL
Cmax ([1]; po, healthy males, 2400 mg oral, second dose, Day 3, N 11, read-out: Cmax, Mean): 45600 ng/mL
Cmax ([1]; po, healthy males, 2400 mg oral, second dose, Day 3, N 11, read-out: Cmax, Median): 47400 ng/mL
half-life ([1]; po, healthy males, 2400 mg oral, second dose, Day 3, N 11, read-out: T1/2, Geometric mean (converted)): 15.3 h
half-life ([1]; po, healthy males, 2400 mg oral, second dose, Day 3, N 11, read-out: T1/2, Mean (converted)): 15.6 h
half-life ([1]; po, healthy males, 2400 mg oral, second dose, Day 3, N 11, read-out: T1/2, Median (converted)): 15.6 h
Tmax ([1]; po, healthy males, 2400 mg oral, second dose, Day 3, N 11, read-out: Tmax, Median): 0.5 h
deaths, SAEs, discontinuations due to TEAEs, Grade 2 or 3 TEAEs (healthy male volunteers): no deaths or other SAEs, discontinuations due to TEAEs, or moderate (Grade 2) or severe (Grade 3) TEAEs
dissociative effects (healthy male volunteers): No dissociative effects were reported
incidence of TEAEs (healthy male volunteers): 8.3%
incidence of drug-related TEAEs (healthy male volunteers): 0%
proconvulsant activity on safety EEGs (healthy male volunteers): no evidence
safety and tolerability (healthy male volunteers): generally safe and well tolerated
severity of TEAEs (healthy male volunteers): mild (Grade 1)
CSF BDNF and BDNF receptor (NTRK2) fragment levels [2]: rapid release of BDNF and receptor degradation
adverse effects in rodent models [3]: without producing significant adverse effects
antidepressant effects [3]: rapid antidepressant effects comparable to those of ketamine
